Experiments:
[1] = test system: melanoma cells; details: treatment as in Example 2
Experimental: (§2) Cultures are re-fed periodically with additions of respective supplements, with or without medium change as indicated. Controls consist of cells receiving growth medium without added supplement.
(§3) The following day, threonate treatment is initiated using one of two protocols.
(§4) In one protocol (short exposure), monolayers are washed and exposed directly to 1 mL/well of 7.5-30 mM threonate (prepared in Ringer's solution) for brief periods at 37 C. as described by Fay and Verlangieri (referenced above). […] After exposure, the solution is removed and replaced by growth medium. […]
(§5) Cell survival following treatment is assessed at predetermined intervals by taking viable cell counts using a Neubauer haemocytometer. Viable cells are scored as those capable excluding trypan blue as previously described (Harakeh and Jariwalla, Am.J.Clin.Nutr. 54:1231S-1235S (1991)). […]
(§6) The induction of apoptosis following treatment of various tumor cell types with the Test compositions and controls described in Example 1 is evaluated using an enzyme-linked immunoassay (“ELISA”) developed by Boehringer-Mannheim (Indianapolis, Ind.). […] The presence and level of nucleosomal fragments in cytoplasmic lysates after different treatments is determined using the procedure specified in the cell-death detection ELISA kit, supplied by Boehringer-Mannheim. […]

[2] = test system: Malme-3 Normal Human Skin Fibroblasts; experiment: Cell-death detection ELISA (apoptosis), Malme-3 normal skin fibroblasts; assay type: cell-based
Experimental: (§1) Working stock solutions (10× strength) are made in sterile water immediately before use. For comparative evaluation, stock solutions of Test 2 and Test 4 solutions are prepared in sterile water, normalized to contain AA equivalents identical to the Test 1 stock. These stocks are stored at room temperature for use in evaluations. […] Parallel sets of wells are treated similarly with stock solutions of CA+CT and CA alone, containing the same equivalents of AA as Test 1. Control cultures are treated with an equivalent volume of sterile water. Periodic treatment with these compositions is repeated at 1-2 day intervals by direct addition of fresh solutions (without change of growth medium). […] Briefly, the ELISA assay is carried out as follows. […] The “Number of Treatments” is the total number of treatments with the Composition. The “Maximum Fold Increase in Apoptosis” is the maximal fold change in apoptosis over the control and the “Maximum Dose” is the concentration of the Composition which induces the “Maximum Fold Apoptosis” compared to the control.

[3] = test system: Malme-3M Melanoma; experiment: Cell-death detection ELISA (apoptosis), Malme-3M melanoma; assay type: cell-based, Human
Experimental: as §1

[4] = test system: WRL-68 Normal Human Liver Cells; experiment: Cell-death detection ELISA (apoptosis), WRL-68 normal liver cells; assay type: cell-based
Experimental: as §1

[5] = test system: SK-Hep-1 Liver adenocarcinoma; experiment: Cell-death detection ELISA (apoptosis), SK-Hep-1 liver adenocarcinoma; assay type: cell-based, Human
Experimental: as §1

[6] = test system: SK-N-MC Neuroblastoma; experiment: Cell-death detection ELISA (apoptosis), SK-N-MC neuroblastoma; assay type: cell-based, Human
Experimental: as §1

[7] = test system: T-84 Colon Carcinoma; experiment: Cell-death detection ELISA (apoptosis), T-84 colon carcinoma; assay type: cell-based, Human
Experimental: as §1

[8] = test system: hepatoma cells; details: treatment as in Example 2
Experimental: as §2, §3, §4, §5, §6

[9] = concentration causing 2-fold change in apoptosis over control
[10] = concentration inducing the maximum fold apoptosis
[11] = maximal fold change over control

Molecule | cell death (apoptosis) in melanoma cells as compared to normal cellular counterparts [1] | MINIMUM APOPTOTIC DOSE, DOSE CONC. (%) [2, 9] [%] | MAXIMUM FOLD INCREASE IN APOPTOSIS, DOSE CONC. (%) [2, 10] [%] | MAXIMUM FOLD INCREASE IN APOPTOSIS [2, 11] [fold] | MINIMUM APOPTOTIC DOSE, DOSE CONC. (%) [3, 9] [%] | MAXIMUM FOLD INCREASE IN APOPTOSIS, DOSE CONC. (%) [3, 10] [%] | MAXIMUM FOLD INCREASE IN APOPTOSIS [3, 11] [fold] | MINIMUM APOPTOTIC DOSE, DOSE CONC. (%) [4, 9] [%] | MAXIMUM FOLD INCREASE IN APOPTOSIS, DOSE CONC. (%) [4, 10] [%] | MAXIMUM FOLD INCREASE IN APOPTOSIS [4, 11] [fold] | MINIMUM APOPTOTIC DOSE, DOSE CONC. (%) [5, 9] [%] | MAXIMUM FOLD INCREASE IN APOPTOSIS, DOSE CONC. (%) [5, 10] [%] | MAXIMUM FOLD INCREASE IN APOPTOSIS [5, 11] [fold] | MINIMUM APOPTOTIC DOSE, DOSE CONC. (%) [6, 9] [%] | MAXIMUM FOLD INCREASE IN APOPTOSIS, DOSE CONC. (%) [6, 10] [%] | MAXIMUM FOLD INCREASE IN APOPTOSIS [6, 11] [fold] | MINIMUM APOPTOTIC DOSE, DOSE CONC. (%) [7, 9] [%] | MAXIMUM FOLD INCREASE IN APOPTOSIS, DOSE CONC. (%) [7, 10] [%] | MAXIMUM FOLD INCREASE IN APOPTOSIS [7, 11] [fold] | cell death (apoptosis) in hepatoma cells as compared to normal cellular counterparts [8]
O=C1O[C@H]([C@@H](O)CO)C(O)=C1O [ascorbic acid (AA), Ascorbic Acid] | selective dose-dependent cell death (apoptosis) | – | – | – | – | – | – | – | – | – | – | – | – | – | – | – | – | – | – | –
Calcium Ascorbate | – | 0.025 | 0.025 | 2.16 | 0.012 | 0.025 | 92.8 | 0.012 | 0.012 | 2.22 | 0.006 | 0.033 | 12.04 | 0.015 | 0.015 | 5.03 | >0.06 | 0.033 | 1.77 | –
Calcium Threonate [calcium threonate (CT)] | selective dose-dependent cell death (apoptosis) | – | – | – | – | – | – | – | – | – | – | – | – | – | – | – | – | – | – | selective dose-dependent cell death (apoptosis)
